Source: US20110160193A1, “New Benzothiazinone Derivatives and Their Use as Antibacterial Agents” (Leibniz Institute for Natural Product Research and …, priority 2006, published 2011)
Where two headings read alike, the source gives them in different places.

Key:
[1] = system: Mycobacterium smegmatis SG 987; assay: MIC by micro broth dilution method in Mueller-Hinton broth (NCCLS); assay type: cell-based
M. vaccae IMET 1010670 = assay: as above; assay type: cell-based
M. fortuitum B = assay: as above; assay type: cell-based
[2] = system: Mycobacterium tuberculosis H37Rv; assay: Murine TB model, hematogenously disseminated tuberculosis; assay type: in vivo, BALB/c line mice; conditions: 10 animals per group
[3] = system: Mycobacterium tuberculosis clinical isolate 6341; assay: MIC and MBC in liquid Shkolnikova medium / solid Lowenstein-Jensen medium; assay type: cell-based
[4] = Toxicity after per os administration; assay type: in vivo; conditions: mice
Protocol: The compound of the invention (especially compound no 2=example 1 in the embodiments), is non toxic after per os administration of doses ranging up to 2000 mg/kg was the compound was well endured by animals in the first and 24 next coming hours after introducing. […] LD50 for compound 2 is >2000 mg/kg.

[5] = Mycolicibacterium smegmatis, SG987
[6] = Mycolicibacterium vaccae, IMET1010670

O=c1nc(N2CCC3(CC2)OCCO3)sc2c([N+](=O)[O-])cc([N+](=O)[O-])cc12 [Compound 3, 2-(1,4-dioxa-8-azaspiro[4.5]dec-8-yl)-6,8-dinitro-1,3-benzothiazin-4-one]
0.2 µg/mL: MIC [1, 5]
0.0015 µg/mL: MIC (M. vaccae IMET 1010670; [6])
0.006 µg/mL: MIC (M. fortuitum B; Mycolicibacterium fortuitum)
271 to 273 °C: melting point

NNC(=O)c1ccncc1 [Isoniazid, reference compound]
10: Survival of animals ([2]; day of treatment 1, 25 mg/kg) | Survival of animals ([2]; day of treatment 2, 25 mg/kg) | Survival of animals ([2]; day of treatment 3, 25 mg/kg) | Survival of animals ([2]; day of treatment 4, 25 mg/kg) | Survival of animals ([2]; day of treatment 5, 25 mg/kg) | Survival of animals ([2]; day of treatment 6, 25 mg/kg) | Survival of animals ([2]; day of treatment 7, 25 mg/kg) | Survival of animals ([2]; day of treatment 8, 25 mg/kg) | Survival of animals ([2]; day of treatment 9, 25 mg/kg) | Survival of animals ([2]; day of treatment 10, 25 mg/kg) | Survival of animals ([2]; day of treatment 11, 25 mg/kg) | Survival of animals ([2]; day of treatment 12, 25 mg/kg) | Survival of animals ([2]; day of treatment 13, 25 mg/kg) | Survival of animals ([2]; day of treatment 14, 25 mg/kg) | Survival of animals ([2]; day of treatment 15, 25 mg/kg) | Survival of animals ([2]; day of treatment 16, 25 mg/kg) | Survival of animals ([2]; day of treatment 17, 25 mg/kg) | Survival of animals ([2]; day of treatment 18, 25 mg/kg) | Survival of animals ([2]; day of treatment 19, 25 mg/kg) | Survival of animals ([2]; day of treatment 20, 25 mg/kg) | Survival of animals ([2]; day of treatment 21, 25 mg/kg) | Survival of animals ([2]; day of treatment 22, 25 mg/kg) | Survival of animals ([2]; day of treatment 23, 25 mg/kg) | Survival of animals ([2]; day of treatment 24, 25 mg/kg) | Survival of animals ([2]; day of treatment 25, 25 mg/kg) | Survival of animals ([2]; day of treatment 26, 25 mg/kg)
100%: Survival of animals ([2]; day of treatment 27, 25 mg/kg)

N#Cc1cc([N+](=O)[O-])c2sc(N3CCC4(CC3)OCCO4)nc(=O)c2c1 [Compound 9, 2-(1,4-dioxa-8-azaspiro[4.5]dec-8-yl)-8-nitro-4-oxo-1,3-benzothiazine-6-carbonitrile]
217 to 220 °C: melting point

Cc1c([N+](=O)[O-])cc2c(=O)nc(N3CCC4(CC3)OCCO4)sc2c1[N+](=O)[O-] [Compound 8, 2-(1,4-dioxa-8-azaspiro[4.5]dec-8-yl)-7-methyl-6,8-dinitro-1,3-benzothiazin-4-one]
0.025 µg/mL: MIC (M. vaccae IMET 1010670; [6]) | MIC (M. fortuitum B; Mycolicibacterium fortuitum)
207 to 210 °C: melting point
0.4 µg/mL: MIC [1, 5]

O=c1nc(N2CCC3(CC2)OCCCCO3)sc2c([N+](=O)[O-])cc([N+](=O)[O-])cc12 [Compound 7, 2-(7,12-dioxa-3-azaspiro[5.6]dodec-3-yl)-6,8-dinitro-1,3-benzothiazin-4-one]
0.003 µg/mL: MIC (M. vaccae IMET 1010670; [6]) | MIC (M. fortuitum B; Mycolicibacterium fortuitum)
0.78 µg/mL: MIC [1, 5]
193 to 195 °C: melting point

CCOC1(OCC)CCN(c2nc(=O)c3cc([N+](=O)[O-])cc([N+](=O)[O-])c3s2)CC1 [Compound 6, 2-(4,4-diethoxypiperidin-1-yl)-6,8-dinitro-1,3-benzothiazin-4-one]
179 to 181 °C: melting point

N#Cc1cc([N+](=O)[O-])c2sc(N3CCC4(CC3)OCCCO4)nc(=O)c2c1 [Compound 11, 2-(1,5-dioxa-9-azaspiro[5.5]undec-9-yl)-8-nitro-4-oxo-1,3-benzothiazine-6-carbonitrile]
0.00625 µg/mL: MIC (M. vaccae IMET 1010670; Mycolicibacterium vaccae, IMET1010670, M. vaccae, read-out: MIC)
230 to 232 °C: melting point
0.025 µg/mL: MIC (M. fortuitum B; Mycolicibacterium fortuitum, M. fortuitum, read-out: MIC)
0.05 µg/mL: MIC ([1]; Mycolicibacterium smegmatis, SG987, M. smegmatis, read-out: MIC)

CC1OC2(CCN(c3nc(=O)c4cc(C(F)(F)F)cc([N+](=O)[O-])c4s3)CC2)OC1C (stereo not drawn) [Compound 5, 2-(2,3-dimethyl-1,4-dioxa-8-azaspiro[4.5]dec-8-yl)-8-nitro-6-(trifluoromethyl)-1,3-benzothiazin-4-one]
0.39 µg/mL: MIC [3]

CC1COC2(CCN(c3nc(=O)c4cc(C(F)(F)F)cc([N+](=O)[O-])c4s3)CC2)O1 (stereo not drawn) [Compound 2, 2-(2-methyl-1,4-dioxa-8-azaspiro[4.5]dec-8-yl)-8-nitro-6-(trifluoro-methyl)-1,3-benzothiazin-4-one]
> 2000 mg/kg: LD50 ([4]; per os)
100%: Survival of animals ([2]; day of treatment 27, 12 mg/kg) | Survival of animals ([2]; day of treatment 27, 25 mg/kg)
10: Survival of animals ([2]; day of treatment 1, 12 mg/kg) | Survival of animals ([2]; day of treatment 1, 25 mg/kg) | Survival of animals ([2]; day of treatment 2, 12 mg/kg) | Survival of animals ([2]; day of treatment 2, 25 mg/kg) | Survival of animals ([2]; day of treatment 3, 12 mg/kg) | Survival of animals ([2]; day of treatment 3, 25 mg/kg) | Survival of animals ([2]; day of treatment 4, 12 mg/kg) | Survival of animals ([2]; day of treatment 4, 25 mg/kg) | Survival of animals ([2]; day of treatment 5, 12 mg/kg) | Survival of animals ([2]; day of treatment 5, 25 mg/kg) | Survival of animals ([2]; day of treatment 6, 12 mg/kg) | Survival of animals ([2]; day of treatment 6, 25 mg/kg) | Survival of animals ([2]; day of treatment 7, 12 mg/kg) | Survival of animals ([2]; day of treatment 7, 25 mg/kg) | Survival of animals ([2]; day of treatment 8, 12 mg/kg) | Survival of animals ([2]; day of treatment 8, 25 mg/kg) | Survival of animals ([2]; day of treatment 9, 12 mg/kg) | Survival of animals ([2]; day of treatment 9, 25 mg/kg) | Survival of animals ([2]; day of treatment 10, 12 mg/kg) | Survival of animals ([2]; day of treatment 10, 25 mg/kg) | Survival of animals ([2]; day of treatment 11, 12 mg/kg) | Survival of animals ([2]; day of treatment 11, 25 mg/kg) | Survival of animals ([2]; day of treatment 12, 12 mg/kg) | Survival of animals ([2]; day of treatment 12, 25 mg/kg) | Survival of animals ([2]; day of treatment 13, 12 mg/kg) | Survival of animals ([2]; day of treatment 13, 25 mg/kg) | Survival of animals ([2]; day of treatment 14, 12 mg/kg) | Survival of animals ([2]; day of treatment 14, 25 mg/kg) | Survival of animals ([2]; day of treatment 15, 12 mg/kg) | Survival of animals ([2]; day of treatment 15, 25 mg/kg) | Survival of animals ([2]; day of treatment 16, 12 mg/kg) | Survival of animals ([2]; day of treatment 16, 25 mg/kg) | Survival of animals ([2]; day of treatment 17, 12 mg/kg) | Survival of animals ([2]; day of treatment 17, 25 mg/kg) | Survival of animals ([2]; day of treatment 18, 12 mg/kg) | Survival of animals ([2]; day of treatment 18, 25 mg/kg) | Survival of animals ([2]; day of treatment 19, 12 mg/kg) | Survival of animals ([2]; day of treatment 19, 25 mg/kg) | Survival of animals ([2]; day of treatment 20, 12 mg/kg) | Survival of animals ([2]; day of treatment 20, 25 mg/kg) | Survival of animals ([2]; day of treatment 21, 12 mg/kg) | Survival of animals ([2]; day of treatment 21, 25 mg/kg) | Survival of animals ([2]; day of treatment 22, 12 mg/kg) | Survival of animals ([2]; day of treatment 22, 25 mg/kg) | Survival of animals ([2]; day of treatment 23, 12 mg/kg) | Survival of animals ([2]; day of treatment 23, 25 mg/kg) | Survival of animals ([2]; day of treatment 24, 12 mg/kg) | Survival of animals ([2]; day of treatment 24, 25 mg/kg) | Survival of animals ([2]; day of treatment 25, 12 mg/kg) | Survival of animals ([2]; day of treatment 25, 25 mg/kg) | Survival of animals ([2]; day of treatment 26, 12 mg/kg) | Survival of animals ([2]; day of treatment 26, 25 mg/kg)
non toxic: Toxicity after per os administration ([4]; doses ranging up to 2000 mg/kg, 7 days of investigations)

CC1COC2(CCN(c3nc(=O)c4cc([N+](=O)[O-])cc([N+](=O)[O-])c4s3)CC2)O1 (stereo not drawn) [Compound 4, 2-(2-methyl-1,4-dioxa-8-azaspiro[4.5]decyl)-6,8-dinitro-1,3-benzothiazin-4-one]
0.2 µg/mL: MIC ([1]; M. smegmatis)
0.003 µg/mL: MIC (M. vaccae IMET 1010670; M. vaccae) | MIC (M. fortuitum B; M. fortuitum)
